# Reference: ChEMBL document CHEMBL3351644, “Tryptophanol-derived oxazolopiperidone lactams: identification of a hit compound as NMDA receptor antagonist” (Bioorg Med Chem Lett, 2014)
# Target: Glutamate NMDA receptor (Rattus norvegicus) (UniProt P35439+Q00959+Q00960+Q00961+Q62645+Q8VHN2+Q9R1M7)
# Assay: Ratio of amantadine IC50 to compound IC50 for NMDA receptor in Wistar rat cerebellar granule neurons assessed as inhibition of NMDA-induced intracellular calcium by Fura-2 fluorescence assay
# Type: cell-based
row,Structure (SMILES),Ratio IC50
1,O=C1CCC[C@@H]2OC[C@@H](Cc3c[nH]c4ccccc34)N12,1.5

# Target: Glutamate NMDA receptor
# Assay: Antagonist activity at NMDA receptor in Wistar rat cerebellar granule neurons assessed as inhibition of NMDA-induced intracellular calcium by Fura-2 fluorescence assay
# Type: cell-based
row,Structure (SMILES),IC50
1,Cn1cc(C[C@@H]2CO[C@H]3CCCC(=O)N23)c2ccccc21,> 450 µM
2,CC[C@@H]1CCC(=O)N2[C@H](Cc3c[nH]c4ccccc34)CO[C@@H]12,> 450 µM
3,Cc1ccc(S(=O)(=O)n2cc(C[C@@H]3CO[C@H]4CCCC(=O)N34)c3ccccc32)cc1,> 450 µM
4,CC[C@H]1CCC(=O)N2[C@H](Cc3c[nH]c4ccccc34)CO[C@H]12,> 450 µM
5,O=C1CC[C@@H]2OC[C@@H](Cc3c[nH]c4ccccc34)N12,341 µM
6,CC[C@H]1CCC(=O)N2[C@@H](Cc3c[nH]c4ccccc34)CO[C@H]12,> 450 µM
7,COC(=O)C[C@H]1CC(=O)N2[C@H](Cc3c[nH]c4ccccc34)CO[C@H]2C1,> 450 µM
8,CC[C@@H]1CCC(=O)N2[C@@H](Cc3c[nH]c4ccccc34)CO[C@@H]12,> 450 µM
9,COC(=O)C[C@@H]1CC(=O)N2[C@@H](Cc3c[nH]c4ccccc34)CO[C@@H]2C1,> 450 µM
10,COC(=O)C[C@H]1CC(=O)N2[C@@H](Cc3c[nH]c4ccccc34)CO[C@@H]2C1,> 450 µM
11,O=C1CCC[C@@H]2OC[C@@H](Cc3c[nH]c4ccccc34)N12,63.4 µM
12,O=C1CCC[C@H]2OC[C@@H](Cc3c[nH]c4ccccc34)N12,> 450 µM
13,COC(=O)C[C@@H]1CC(=O)N2[C@H](Cc3c[nH]c4ccccc34)CO[C@@H]2C1,> 450 µM
14,O=C1CCC[C@H]2OC[C@H](Cc3c[nH]c4ccccc34)N12,429 µM
15,O=C1CCC[C@@H]2OC[C@H](Cc3c[nH]c4ccccc34)N12,305 µM
